Experimental data: patent US12275729B2 (Merck Sharp & Dohme LLC, priority 2017, dated 2025)

What was measured:
[1] = molecular target: T1, IDO1 (Homo sapiens, UniProt P14902); assay: IDO1 Cellular Assay in HeLa Cells Stimulated with IFNγ; assay type: cell-based; details: read-out: Hela IC50
[2] = molecular target: T1, IDO1; assay: IDO1 Human Whole Blood Assay; assay type: cell-based; parameters: Human whole blood was drawn in sodium heparin coated tubes from healthy internal donors; from tissue; host or cells: human whole blood from healthy donors, stimulated with LPS and IFNγ; details: LPS and IFNγ stimulated

T1 sequence (P14902 whole entry): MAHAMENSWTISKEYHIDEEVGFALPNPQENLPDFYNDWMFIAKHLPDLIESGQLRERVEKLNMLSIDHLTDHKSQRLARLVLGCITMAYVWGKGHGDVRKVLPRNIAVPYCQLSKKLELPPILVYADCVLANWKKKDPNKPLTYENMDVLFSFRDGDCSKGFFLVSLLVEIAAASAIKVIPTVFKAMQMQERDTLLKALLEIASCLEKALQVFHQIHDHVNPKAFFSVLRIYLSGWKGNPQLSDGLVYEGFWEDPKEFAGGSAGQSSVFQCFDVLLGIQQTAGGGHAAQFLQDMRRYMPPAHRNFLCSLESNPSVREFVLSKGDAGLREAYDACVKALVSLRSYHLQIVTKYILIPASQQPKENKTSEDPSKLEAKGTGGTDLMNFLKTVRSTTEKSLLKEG

IC50 [1]	IC50 ([1]; value in running text)	IC50 [2]	IC50 ([1]; about 48 hours)	SMILES
6.84 nM	6.8 nM	26 nM		Cc1nccc(N2CCCc3nc(C4(C(=O)Nc5ccc(F)cc5)CC(OCc5ccccc5)C4)ccc32)n1 (stereo not shown) [Example 423, 2-(3-(benzyloxy)-1-((4-fluorophenyl)carbamoyl)cyclobutyl)-5-(2-methylpyrimidin-4-yl)-5,6,7,8-tetrahydro-1,5-naphthyridin-1-ium 2,2,2-trifluoroacetate]
		19 nM	2.4 nM	C[C@@H](C(=O)Nc1ccc(F)cn1)c1ccc2c(c1)CCCN2C(=O)c1cccc(Cl)c1 (single isomer, unassigned) [Example 55]
		21 nM	1.69 nM	Cc1nccc(N2CCCc3nc(C4(NC(=O)c5ccc(Br)cc5)CC4)ccc32)n1 [Example 301, 4-bromo-N-(1-(5-(2-methylpyrimidin-4-yl)-5,6,7,8-tetrahydro-1,5-naphthyridin-2-yl)cyclopropyl)benzamide]
0.79 nM		70 nM		O=C(OC1CC1)N1CCCc2nc(C3(C(=O)Nc4ccc(F)cc4)CCC3)ccc21 [Example 410, cyclopropyl 6-(1-((4-fluorophenyl)carbamoyl)cyclobutyl)-3,4-dihydro-1,5-naphthyridine-1(2H)-carboxylate]
9.87 nM		47 nM		CC(NC(=O)c1ccc(F)cc1)c1ccc2c(n1)CCCN2C(=O)OC(C)(C)C(F)(F)F (stereo not shown) [Example 312]
		1140 nM	7.3 nM	CC(NC(=O)c1ccc(F)cc1)c1ccc2c(n1)CCCN2C(=O)c1c(Cl)cccc1Cl (stereo not shown) [Example 150, N-{1-[5-(2,6-dichlorobenzene-1-carbonyl)-5,6,7,8-tetrahydro-1,5-naphthyridin-2-yl]ethyl}-4-fluorobenzamide]
		378 nM	6 nM	CC(NC(=O)c1ccc(F)cc1)c1ccc2c(c1)CCCN2C(CO)c1cccc(Cl)c1 (single isomer, unassigned) [Example 92]
1.61 nM		46 nM		CC(NC(=O)c1ccc(Cl)cc1)c1ccc2c(n1)CCCN2C(=O)OCC(F)(F)F (stereo not shown) [Example 310]
		71 nM	2.3 nM	CC(NC(=O)c1ccc(F)cc1)c1ccc2c(n1)CCCN2C(=O)c1cc(Cl)ccn1 (stereo not shown) [Example 277, N-(1-(5-(4-chloropicolinoyl)-5,6,7,8-tetrahydro-1,5-naphthyridin-2-yl)ethyl)-4-fluorobenzamide]
1.35 nM		239 nM		O=C(OC1CC1)N1CCCc2nc(C3(C(=O)Nc4ccc(Cl)nc4)CC4(CC4)C3)ccc21 [Example 418, 2-(5-((6-chloropyridin-3-yl)carbamoyl)spiro[2.3]hexan-5-yl)-5-(cyclopropoxycarbonyl)-5,6,7,8-tetrahydro-1,5-naphthyridin-1-ium 2,2,2-trifluoroacetate]
1.09 nM	1 nM	69 nM		Cc1nccc(N2CCCc3nc(C4(C(=O)Nc5ccc(F)cc5)CC(F)C4)ccc32)n1 (stereo not shown) [Example 419, 2-(3-fluoro-1-((4-fluorophenyl)carbamoyl)cyclobutyl)-5-(2-methylpyrimidin-4-yl)-5,6,7,8-tetrahydro-1,5-naphthyridin-1-ium 2,2,2-trifluoroacetate]
		63 nM	0.89 nM	O=C(NC1(c2ccc3c(n2)CCCN3c2ccnc(C3CC3)n2)CC1)c1ccc(F)cc1 [Example 307, 5-(2-cyclopropylpyrimidin-4-yl)-2-(1-(4-fluorobenzamido)cyclopropyl)-5,6,7,8-tetrahydro-1,5-naphthyridin-1-ium 2,2,2-trifluoroacetate]
		17 nM	2.7 nM	CC(NC(=O)c1ccc(Cl)cc1)c1ccc2c(n1)CCCN2C(=O)c1cc(C(F)F)ccn1 (stereo not shown) [Example 289, 4-chloro-N-(1-(5-(4-(difluoromethyl)picolinoyl)-5,6,7,8-tetrahydro-1,5-naphthyridin-2-yl)ethyl)benzamide]
		41 nM	1.2 nM	O=C(OC1CC1)N1CCc2cc(C3(C(=O)Nc4ccc(F)cc4)CCC3)ccc21 [Example 270, cyclopropyl 5-{1-[(4-fluorophenyl)carbamoyl]cyclobutyl}-2,3-dihydro-1H-indole-1-carboxylate]
1.09 nM	1 nM	12 nM		Cc1nccc(N2CCCc3nc(C4(C(=O)Nc5ccc(F)cc5)CC(F)(F)C4)ccc32)n1 [Example 420, 3,3-difluoro-N-(4-fluorophenyl)-1-(5-(2-methylpyrimidin-4-yl)-5,6,7,8-tetrahydro-1,5-naphthyridin-2-yl)cyclobutanecarboxamide]
		106 nM	2.15 nM	Cc1ccc(C(=O)NC2(c3ccc4c(n3)CCCN4c3ccnc(C)n3)CC2)cc1 [Example 303, 4-methyl-N-(1-(5-(2-methylpyrimidin-4-yl)-5,6,7,8-tetrahydro-1,5-naphthyridin-2-yl)cyclopropyl)benzamide]

IC50 [1]	IC50 ([1]; value in running text)	IC50 [2]	IC50 ([1]; about 48 hours)	SMILES
		336 nM	1.9 nM	O=C(Nc1ccc(Cl)cc1)C1(c2ccc3c(n2)CCN3c2ccccn2)CCC1 [Example 272, N-(4-chlorophenyl)-1-[1-(pyridin-2-yl)-2,3-dihydro-1H-pyrrolo[3,2-b]pyridin-5-yl]cyclobutane-1-carboxamide]
		2980 nM	11.5 nM	O=C(Nc1ccc(Cl)cc1)C1(c2ccc3c(n2)CCCN3c2cccc(C3CC3)n2)CCC1 [Example 408, N-(4-chlorophenyl)-1-(5-(6-cyclopropylpyridin-2-yl)-5,6,7,8-tetrahydro-1,5-naphthyridin-2-yl)cyclobutane-1-carboxamide]
		214 nM	1.4 nM	Cn1ccc(C(=O)N2CCCc3cc(C4(C(=O)Nc5ccc(F)cn5)CCC4)ccc32)n1 [Example 120, N-(5-fluoropyridin-2-yl)-1-[1-(1-methyl-1H-pyrazole-3-carbonyl)-1,2,3,4-tetrahydroquinolin-6-yl]cyclobutane-1-carboxamide]
		19 nM	4.9 nM	N#Cc1cccc(C(=O)N2CCCc3nc(C4(NC(=O)c5ccc(F)cc5)CC4)ccc32)c1 [Example 175, N-{1-[5-(3-cyanobenzene-1-carbonyl)-5,6,7,8-tetrahydro-1,5-naphthyridin-2-yl]cyclopropyl}-4-fluorobenzamide]
		20 nM	3.3 nM	Cc1cccc(N2CCCc3nc(C4(C(=O)Nc5ccc(Cl)cc5)CCC4)ccc32)n1 [Example 404, N-(4-chlorophenyl)-1-(5-(6-methylpyridin-2-yl)-5,6,7,8-tetrahydro-1,5-naphthyridin-2-yl)cyclobutane-1-carboxamide]
1.1 nM		4950 nM		COC[C@H](C)OC(=O)N1CCCc2nc(C(C)NC(=O)c3ccc(Cl)cc3)ccc21 (stereo partly drawn) [Example 330, (S)-1-methoxypropan-2-yl 6-(1-(4-chlorobenzamido)ethyl)-3,4-dihydro-1,5-naphthyridine-1(2H)-carboxylate]
		41 nM	2.51 nM	CC(C(=O)Nc1ccc(Cl)cc1)c1ccc2c(c1)CC(F)CN2C(=O)c1cccc(Cl)c1 (single isomer, unassigned) [Example 259, 2-(1-(3-chlorobenzoyl)-3-fluoro-1,2,3,4-tetrahydroquinolin-6-yl)-N-(4-chlorophenyl)propanamide]
		63 nM	0.7 nM	Cc1nccc(N2CCCc3nc(C4(NC(=O)c5ccc(Cl)cc5)CC4)ccc32)n1 [Example 249, 4-chloro-N-(1-(5-(2-methylpyrimidin-4-yl)-5,6,7,8-tetrahydro-1,5-naphthyridin-2-yl)cyclopropyl)benzamide]
13 nM		167 nM		Cc1ncc(N2CCCc3nc(C(C)NC(=O)c4ccc(Cl)cc4)ccc32)s1 (stereo not shown) [Example 356, 4-chloro-N-(1-(5-(2-methylthiazol-5-yl)-5,6,7,8-tetrahydro-1,5-naphthyridin-2-yl)ethyl)benzamide]
		361 nM	3.3 nM	O=C(N1CCCc2cc(C3(C(=O)Nc4ccc(F)cc4)CCC3)ccc21)C1(F)CC1 [Example 98, 1-[1-(1-fluorocyclopropane-1-carbonyl)-1,2,3,4-tetrahydroquinolin-6-yl]-N-(4-fluorophenyl)cyclobutane-1-carboxamide]
		27 nM	1.82 nM	O=C(Nc1ccc(Cl)cc1)C1(c2ccc3c(n2)CCCN3c2ccnc(C(F)(F)F)n2)COC1 [Example 396, N-(4-chlorophenyl)-3-(5-(2-(trifluoromethyl)pyrimidin-4-yl)-5,6,7,8-tetrahydro-1,5-naphthyridin-2-yl)oxetane-3-carboxamide]
8.22 nM		100 nM		CC(NC(=O)c1ccc(Cl)cc1)c1ccc2c(n1)CCCN2c1cccc(CO)n1 (stereo not shown) [Example 346, 4-chloro-N-(1-(5-(6-(hydroxymethyl)pyridin-2-yl)-5,6,7,8-tetrahydro-1,5-naphthyridin-2-yl)ethyl)benzamide]
156 nM		340 nM		Cc1ncnc(N2CCCc3nc(C(C)NC(=O)c4ccc(Cl)cc4)ccc32)c1C (stereo not shown) [Example 347, 4-chloro-N-(1-(5-(5,6-dimethylpyrimidin-4-yl)-5,6,7,8-tetrahydro-1,5-naphthyridin-2-yl)ethyl)benzamide]
		3 nM	1.68 nM	Cc1nccc(N2CCCc3nc(C4(NC(=O)c5ccc(F)cc5)CCC4)ccc32)n1 [Example 402, 4-fluoro-N-(1-(5-(2-methylpyrimidin-4-yl)-5,6,7,8-tetrahydro-1,5-naphthyridin-2-yl)cyclobutyl)benzamide]
		557 nM	5.4 nM	CCn1ccc(N2CCCc3cc(C4(C(=O)Nc5ccc(F)cn5)CCC4)ccc32)n1 [Example 232, 1-[1-(1-ethyl-H-pyrazol-3-yl)-1,2,3,4-tetrahydroquinolin-6-yl]-N-(5-fluoropyridin-2-yl)cyclobutane-1l-carboxamide]
		289 nM	8.3 nM	CC(NC(=O)c1ccc(Cl)cc1)c1ccc2c(n1)CCCN2C(=O)C1CC1 (single isomer, unassigned) [Example 125, 4-chloro-N-{1-[5-(cyclopropanecarbonyl)-5,6,7,8-tetrahydro-1,5-naphthyridin-2-yl]ethyl}benzamide]
